One may read the MIC as the smallest concentration in the dilution series that meets the test's criterion for growth inhibition. A low value points to greater potency.

The results in this text go back to ChEMBL document CHEMBL1123701, “Synthesis and quantitative structure-activity relationship analysis of N-triiodoallyl- and N-iodopropargylazoles. New antifungal agents” (1987).

Converted amounts (≈) assume the structure as drawn.

In one experiment the test system is Aspergillus fumigatus. Put plainly: Antifungal activity against Aspergillus fumigatus Saito strain. The experiment is classed as functional.
For experiment [1], the system named is Trichophyton interdigitale. The experiment is described as follows: Antifungal activity towards Trichophyton interdigitale. The experiment is classed as functional.
For the next experiment, the system named is Trichophyton benhamiae. The experiment is described as follows: Antifungal activity towards Trichophyton mentagrophytes 530324 strain. In kind it is functional, Arthroderma benhamiae.
The test system of another experiment is Cryptococcus neoformans. Put plainly: Antifungal activity against Cryptococcus neoformans Cr-1 strain. The experiment is classed as functional.
The next experiment concerns Candida albicans. The experiment is described as follows: Antifungal activity against Candida albicans C-A-24 strain. The experiment is classed as functional.

Regarding `COc1ccc(Cl)cc1C(=O)c1cccn1CC(I)=C(I)I`, the MIC worked out at 25 µg/mL (≈ 38.3 µM) in the experiment with Aspergillus fumigatus; 12.5 µg/mL (≈ 19.1 µM) in experiment [1]; 12.5 µg/mL (≈ 19.1 µM) in the experiment with Trichophyton benhamiae; 25 µg/mL (≈ 38.3 µM) in the experiment with Cryptococcus neoformans; 25 µg/mL (≈ 38.3 µM) in the experiment on Candida albicans.

Turning to `IC#CCn1ccnc1`, the MIC with Aspergillus fumigatus worked out at 12.5 µg/mL (≈ 53.9 µM); in experiment [1], 6.25 µg/mL (≈ 26.9 µM); in the experiment with Trichophyton benhamiae, 6.25 µg/mL (≈ 26.9 µM); against Cryptococcus neoformans, 6.25 µg/mL (≈ 26.9 µM); in the experiment with Candida albicans it was 12.5 µg/mL (≈ 53.9 µM).

As for `NC(=O)c1ccc(-c2nnn(CC#CI)n2)cc1`, the MIC in the experiment on Aspergillus fumigatus was greater than 100 µg/mL; in experiment [1], 3.13 µg/mL (≈ 8.86 µM); against Trichophyton benhamiae, 6.25 µg/mL (≈ 17.7 µM); in the experiment with Cryptococcus neoformans, 12.5 µg/mL (≈ 35.4 µM); against Candida albicans it was greater than 100 µg/mL.

On to `O=[N+]([O-])c1ncnn1CC#CI`, for which the MIC in the experiment on Aspergillus fumigatus stood at 0.39 µg/mL (≈ 1.4 µM); in experiment [1], 0.78 µg/mL (≈ 2.81 µM); against Trichophyton benhamiae, 0.39 µg/mL (≈ 1.4 µM); against Cryptococcus neoformans, 0.78 µg/mL (≈ 2.81 µM); in the experiment on Candida albicans, 3.13 µg/mL (≈ 11.3 µM).

Regarding `IC#CCn1nnc(-c2ccccc2)n1`, the MIC in the experiment with Aspergillus fumigatus was 0.2 µg/mL (≈ 0.645 µM); in experiment [1] it was 0.39 µg/mL (≈ 1.26 µM); against Trichophyton benhamiae it was 0.2 µg/mL (≈ 0.645 µM); in the experiment with Cryptococcus neoformans it was 1.56 µg/mL (≈ 5.03 µM); with Candida albicans it was 0.78 µg/mL (≈ 2.52 µM).

`IC#CCn1cccn1`: the MIC in the experiment with Aspergillus fumigatus amounted to 0.78 µg/mL (≈ 3.36 µM); in experiment [1], 0.39 µg/mL (≈ 1.68 µM); against Trichophyton benhamiae, 0.39 µg/mL (≈ 1.68 µM); in the experiment with Cryptococcus neoformans it was 0.78 µg/mL (≈ 3.36 µM); against Candida albicans, 3.13 µg/mL (≈ 13.5 µM).

With `CC(C)c1nnn(CC#CI)n1`, the MIC with Aspergillus fumigatus is 0.78 µg/mL (≈ 2.83 µM); in experiment [1], 0.78 µg/mL (≈ 2.83 µM); in the experiment on Trichophyton benhamiae, 0.78 µg/mL (≈ 2.83 µM); in the experiment with Cryptococcus neoformans, 3.13 µg/mL (≈ 11.3 µM); against Candida albicans, 1.56 µg/mL (≈ 5.65 µM).

Regarding `O=[N+]([O-])c1ccc(-c2nnn(CC#CI)n2)cc1`, the MIC against Aspergillus fumigatus was 6.25 µg/mL (≈ 17.6 µM); in experiment [1], 0.39 µg/mL (≈ 1.1 µM); in the experiment with Trichophyton benhamiae, 0.2 µg/mL (≈ 0.563 µM); in the experiment with Cryptococcus neoformans, 3.13 µg/mL (≈ 8.81 µM); in the experiment with Candida albicans, 25 µg/mL (≈ 70.4 µM).

With `CCCc1nnnn1CC#CI`, the minimal inhibitory concentration (MIC) in the experiment with Aspergillus fumigatus came out at 3.13 µg/mL (≈ 11.3 µM); in experiment [1] it was 1.56 µg/mL (≈ 5.65 µM); with Trichophyton benhamiae, 0.78 µg/mL (≈ 2.83 µM); against Cryptococcus neoformans, 3.13 µg/mL (≈ 11.3 µM); with Candida albicans, 6.25 µg/mL (≈ 22.6 µM).

As for `IC#CCn1ccnn1`, the MIC against Aspergillus fumigatus came out at 0.78 µg/mL (≈ 3.35 µM); in experiment [1], 0.78 µg/mL (≈ 3.35 µM); against Trichophyton benhamiae it was 0.78 µg/mL (≈ 3.35 µM); against Cryptococcus neoformans, 1.56 µg/mL (≈ 6.69 µM); in the experiment on Candida albicans, 3.13 µg/mL (≈ 13.4 µM).

As to `CC(=O)c1c(C)cn(CC#CI)c1C`, the MIC in the experiment with Aspergillus fumigatus was found to be 3.13 µg/mL (≈ 10.4 µM); in experiment [1], 6.25 µg/mL (≈ 20.8 µM); against Trichophyton benhamiae, 1.56 µg/mL (≈ 5.18 µM); against Cryptococcus neoformans, 25 µg/mL (≈ 83 µM); in the experiment with Candida albicans, 25 µg/mL (≈ 83 µM).

For the compound `O=[N+]([O-])c1cn(CC#CI)c(Cl)c1Cl`, the MIC turned out to be 0.39 µg/mL (≈ 1.13 µM) against Aspergillus fumigatus; 0.39 µg/mL (≈ 1.13 µM) in experiment [1]; 0.1 µg/mL (≈ 0.29 µM) with Trichophyton benhamiae; 1.56 µg/mL (≈ 4.52 µM) with Cryptococcus neoformans; 0.78 µg/mL (≈ 2.26 µM) in the experiment with Candida albicans.

With `O=[N+]([O-])c1c[nH]c(Cl)c1Cl`, the MIC with Aspergillus fumigatus was found to be 25 µg/mL (≈ 138 µM); in experiment [1] it was 3.13 µg/mL (≈ 17.3 µM); in the experiment on Trichophyton benhamiae it was 6.25 µg/mL (≈ 34.5 µM); in the experiment on Cryptococcus neoformans it was 25 µg/mL (≈ 138 µM); with Candida albicans, 100 µg/mL (≈ 553 µM).

With `Cc1nnn(CC#CI)n1`, the MIC was determined as 0.78 µg/mL (≈ 3.14 µM) in the experiment with Aspergillus fumigatus; 0.78 µg/mL (≈ 3.14 µM) in experiment [1]; 0.78 µg/mL (≈ 3.14 µM) against Trichophyton benhamiae; 0.78 µg/mL (≈ 3.14 µM) against Cryptococcus neoformans; 1.56 µg/mL (≈ 6.29 µM) in the experiment with Candida albicans.

As to `O=C(c1ccccc1)c1cccn1CC(I)=C(I)I`, the minimal inhibitory concentration (MIC) with Aspergillus fumigatus was 6.25 µg/mL (≈ 10.6 µM); in experiment [1], 3.13 µg/mL (≈ 5.31 µM); with Trichophyton benhamiae, 1.56 µg/mL (≈ 2.65 µM); with Cryptococcus neoformans, 6.25 µg/mL (≈ 10.6 µM); in the experiment with Candida albicans, 6.25 µg/mL (≈ 10.6 µM).

On to `CCOCCc1nnn(CC(I)=C(I)I)n1`, for which the MIC in the experiment with Aspergillus fumigatus stood at 0.78 µg/mL (≈ 1.39 µM); in experiment [1] it was 0.39 µg/mL (≈ 0.697 µM); with Trichophyton benhamiae it was 0.2 µg/mL (≈ 0.357 µM); against Cryptococcus neoformans, 1.56 µg/mL (≈ 2.79 µM); in the experiment with Candida albicans it was 3.13 µg/mL (≈ 5.59 µM).

With `O=[N+]([O-])c1c(Cl)cccc1-c1cn(CC#CI)cc1Cl`, the MIC against Aspergillus fumigatus came to 12.5 µg/mL (≈ 29.7 µM); in experiment [1] it was 6.25 µg/mL (≈ 14.8 µM); against Trichophyton benhamiae, 6.25 µg/mL (≈ 14.8 µM); against Cryptococcus neoformans, 25 µg/mL (≈ 59.4 µM); against Candida albicans, 25 µg/mL (≈ 59.4 µM).

Consider `O=C(O)c1ccc(-c2nnn(CC#CI)n2)cc1`, for which the minimal inhibitory concentration (MIC) against Aspergillus fumigatus is greater than 100 µg/mL; in experiment [1] it was 6.25 µg/mL (≈ 17.7 µM); against Trichophyton benhamiae, 25 µg/mL (≈ 70.6 µM); against Cryptococcus neoformans, 100 µg/mL (≈ 282 µM); against Candida albicans, greater than 100 µg/mL.

Regarding `O=[N+]([O-])c1cn(CC#CI)cn1`, the MIC worked out at 0.78 µg/mL (≈ 2.82 µM) against Aspergillus fumigatus; 0.78 µg/mL (≈ 2.82 µM) in experiment [1]; 0.2 µg/mL (≈ 0.722 µM) with Trichophyton benhamiae; 0.1 µg/mL (≈ 0.361 µM) in the experiment on Cryptococcus neoformans; 6.25 µg/mL (≈ 22.6 µM) against Candida albicans.

On to `IC#CCn1cncn1`, for which the MIC was 0.39 µg/mL (≈ 1.67 µM) with Aspergillus fumigatus; 0.78 µg/mL (≈ 3.35 µM) in experiment [1]; 0.78 µg/mL (≈ 3.35 µM) with Trichophyton benhamiae; 0.78 µg/mL (≈ 3.35 µM) with Cryptococcus neoformans; 3.13 µg/mL (≈ 13.4 µM) against Candida albicans.

Regarding `IC(I)=C(I)Cn1nnnc1C1CC1`, the MIC in the experiment with Aspergillus fumigatus is 1.56 µg/mL (≈ 2.96 µM); in experiment [1] it was 1.56 µg/mL (≈ 2.96 µM); against Trichophyton benhamiae it was 0.78 µg/mL (≈ 1.48 µM); against Cryptococcus neoformans it was greater than 25 µg/mL; with Candida albicans, 25 µg/mL (≈ 47.4 µM).

Consider `COC(=O)c1cccn1CC(I)=C(I)I`, for which the MIC came to 3.13 µg/mL (≈ 5.77 µM) in the experiment with Aspergillus fumigatus; 0.39 µg/mL (≈ 0.718 µM) in experiment [1]; 0.78 µg/mL (≈ 1.44 µM) in the experiment with Trichophyton benhamiae; 3.13 µg/mL (≈ 5.77 µM) in the experiment on Cryptococcus neoformans; 1.56 µg/mL (≈ 2.87 µM) against Candida albicans.

Consider `CC(C)c1nnnn1CC#CI`, for which the MIC amounted to 6.25 µg/mL (≈ 22.6 µM) against Aspergillus fumigatus; 1.56 µg/mL (≈ 5.65 µM) in experiment [1]; 3.13 µg/mL (≈ 11.3 µM) in the experiment with Trichophyton benhamiae; 25 µg/mL (≈ 90.6 µM) in the experiment with Cryptococcus neoformans; 12.5 µg/mL (≈ 45.3 µM) with Candida albicans.

On to `IC(I)=C(I)Cn1cncn1`, for which the MIC with Aspergillus fumigatus was determined as 0.2 µg/mL (≈ 0.411 µM); in experiment [1] it was 0.39 µg/mL (≈ 0.801 µM); with Trichophyton benhamiae, 0.78 µg/mL (≈ 1.6 µM); in the experiment on Cryptococcus neoformans it was 6.25 µg/mL (≈ 12.8 µM); against Candida albicans it was 1.56 µg/mL (≈ 3.2 µM).

In the case of `Fc1ccc(-c2nnn(CC(I)=C(I)I)n2)cc1`, the MIC in the experiment on Aspergillus fumigatus is greater than 100 µg/mL; in experiment [1] it was 0.78 µg/mL (≈ 1.34 µM); against Trichophyton benhamiae, 0.1 µg/mL (≈ 0.172 µM); against Cryptococcus neoformans, greater than 100 µg/mL; in the experiment with Candida albicans, greater than 100 µg/mL.

`COc1ccc(-c2nnnn2CC(I)=C(I)I)cc1`: the MIC came out at 0.78 µg/mL (≈ 1.31 µM) against Aspergillus fumigatus; 0.39 µg/mL (≈ 0.657 µM) in experiment [1]; 0.1 µg/mL (≈ 0.168 µM) against Trichophyton benhamiae; 0.78 µg/mL (≈ 1.31 µM) against Cryptococcus neoformans; 6.25 µg/mL (≈ 10.5 µM) in the experiment on Candida albicans.

Consider `IC(I)=C(I)Cn1nccn1`, for which the MIC with Aspergillus fumigatus is 0.39 µg/mL (≈ 0.801 µM); in experiment [1], 0.39 µg/mL (≈ 0.801 µM); with Trichophyton benhamiae, 0.2 µg/mL (≈ 0.411 µM); in the experiment with Cryptococcus neoformans, 1.56 µg/mL (≈ 3.2 µM); with Candida albicans it was 0.78 µg/mL (≈ 1.6 µM).

Take `O=[N+]([O-])c1c(Cl)cccc1-c1cn(CC(I)=C(I)I)cc1Cl`: the minimal inhibitory concentration (MIC) against Aspergillus fumigatus was 12.5 µg/mL (≈ 18.5 µM); in experiment [1] it was 6.25 µg/mL (≈ 9.26 µM); against Trichophyton benhamiae, 3.13 µg/mL (≈ 4.64 µM); in the experiment on Cryptococcus neoformans, 12.5 µg/mL (≈ 18.5 µM); against Candida albicans it was 12.5 µg/mL (≈ 18.5 µM).

For `CCCCCc1nnnn1CC#CI`, the MIC in the experiment with Aspergillus fumigatus was found to be 0.39 µg/mL (≈ 1.28 µM); in experiment [1] it was 0.1 µg/mL (≈ 0.329 µM); in the experiment on Trichophyton benhamiae, 0.2 µg/mL (≈ 0.658 µM); with Cryptococcus neoformans, 3.13 µg/mL (≈ 10.3 µM); with Candida albicans it was 3.13 µg/mL (≈ 10.3 µM).

Regarding `Clc1ccccc1C(c1ccccc1)(c1ccccc1)n1ccnc1` [CLOTRIMAZOLE], the MIC with Aspergillus fumigatus came to 1.56 µg/mL (≈ 4.52 µM); in experiment [1] it was 0.39 µg/mL (≈ 1.13 µM); against Trichophyton benhamiae it was 0.39 µg/mL (≈ 1.13 µM); against Cryptococcus neoformans it was 1.56 µg/mL (≈ 4.52 µM); in the experiment on Candida albicans, 6.25 µg/mL (≈ 18.1 µM).

Turning to `Clc1cc(Cl)c(OCC#CI)cc1Cl` [HALOPROGIN], the MIC against Aspergillus fumigatus amounted to 3.13 µg/mL (≈ 8.66 µM); in experiment [1] it was 0.39 µg/mL (≈ 1.08 µM); against Trichophyton benhamiae it was 0.39 µg/mL (≈ 1.08 µM); in the experiment with Cryptococcus neoformans, 1.56 µg/mL (≈ 4.32 µM); against Candida albicans, 3.13 µg/mL (≈ 8.66 µM).
